# Reference: patent US20230011869A1 (Hoffmann-La Roche Inc., priority 2018, published 2023)
# Counter-ions that a name gives are not always drawn.
# System: Acinetobacter baumannii ATCC17978
# Assay: Antimicrobial susceptibility testing: 90% growth inhibitory concentration (IC90) determination, Iso-Sensitest broth
# Format: cell-based
# Settings: 90% growth inhibitory concentration, Acinetobacter baumannii ATCC17978, Iso-Sensitest broth, OD 600 nm over 16 h; read-out: ATCC17978 IC90
# Outline: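 A. baumannii ATCC17978 grown in Iso-Sensitest broth across 10 compound concentrations at 35±2 °C.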
row,IC90 [nM],Compound
1,180,"COc1ccc(-c2cnc3c(Nc4ccc(C(=O)N5CCC(C(=O)NCCN6CCC6)CC5)c(C)c4)nccn23)cc1F [Example 61, N-(2-(azetidin-1-yl)ethyl)-1-(4-((3-(3-fluoro-4-methoxyphenyl)imidazo[1,2-a]pyrazin-8-yl)amino)-2-methylbenzoyl)piperidine-4-carboxamide]"
2,160,"COc1ccc(-c2cnc3c(Nc4ccc(C(=O)N5CCC(C(=O)NCCCN6CCC6)CC5)c(C)c4)nccn23)cc1F [Example 62, N-(3-(azetidin-1-yl)propyl)-1-(4-((3-(3-fluoro-4-methoxyphenyl)imidazo[1,2-a]pyrazin-8-yl)amino)-2-methylbenzoyl)piperidine-4-carboxamide]"
3,170,"COc1ccc(-c2cnc3c(Nc4ccc(C(=O)N5CCC(C(=O)N[C@@H]6CCNC6)CC5)c(C)c4)nccn23)c(F)c1F [Example 63, (R)-1-(4-((3-(2,3-difluoro-4-methoxyphenyl)imidazo[1,2-a]pyrazin-8-yl)amino)-2-methylbenzoyl)-N-(pyrrolidin-3-yl)piperidine-4-carboxamide hydrochloride]"
4,270,"COc1ccc(-c2cnc3c(Nc4ccc(C(=O)N5CCN(C(=O)CN(C)C)CC5)c(C)c4)nccn23)cc1F [Example 64, 2-(dimethylamino)-1-(4-(4-((3-(3-fluoro-4-methoxyphenyl)imidazo[1,2-a]pyrazin-8-yl)amino)-2-methylbenzoyl)piperazin-1-yl)ethanone]"
5,110,Cc1cc(Nc2nccn3c(-c4ccc(OC(F)F)cc4)cnc23)ccc1C(=O)N1CCN(C(=N)N)CC1 [Example 69]
6,350,"COc1ccc(-c2cnc3c(Nc4ccc(C(=O)N5CCC(O)(CN)CC5)c(C)c4)nccn23)cc1F [Example 71, [4-(aminomethyl)-4-hydroxypiperidin-1-yl]-[4-[[3-(3-fluoro-4-methoxyphenyl)imidazo[1,2-a]pyrazin-8-yl]amino]-2-methylphenyl]methanone;2,2,2-trifluoroacetic acid]"
7,260,"Cc1cc(Nc2nccn3c(-c4ccc(OC(F)F)cc4)cnc23)ccc1C(=O)N1CCC(Cc2cnc[nH]2)CC1 [Example 72, (4-((1H-imidazol-4-yl)methyl)piperidin-1-yl)(4-((3-(4-(difluoromethoxy)phenyl)imidazo[1,2-a]pyrazin-8-yl)amino)-2-methylphenyl)methanone]"
8,330,"COc1ccc(-c2cnc3c(Nc4ccc(C(=O)N5CCN(C6CNC6)CC5)c(C)c4)nccn23)cc1F [Example 73, (4-(azetidin-3-yl)piperazin-1-yl)(4-((3-(3-fluoro-4-methoxyphenyl)imidazo[1,2-a]pyrazin-8-yl)amino)-2-methylphenyl)methanone hydrochloride]"
9,71,"Cc1cc(Nc2nccn3c(-c4ccc(OC(F)F)cc4)cnc23)ccc1C(=O)N1CCN(C(N)=O)CC1 [Example 74, 4-(4-((3-(4-(difluoromethoxy)phenyl)imidazo[1,2-a]pyrazin-8-yl)amino)-2-methylbenzoyl)piperazine-1-carboxamide]"
10,140,"COc1ccc(-c2cnc3c(Nc4ccc(C(=O)N5CCC(C(=O)NCC(N)CO)CC5)c(C)c4)nccn23)cc1F (stereo not shown) [Example 101, N-(2-amino-3-hydroxypropyl)-1-(4-((3-(3-fluoro-4-methoxyphenyl)imidazo[1,2-a]pyrazin-8-yl)amino)-2-methylbenzoyl)piperidine-4-carboxamide hydrochloride]"

# Further lines, the molecule ahead of its results:
row,Compound,IC90 [nM]
1,"COc1ccc(-c2cnc3c(Nc4ccc(C(=O)N5CCC(C(=O)NCC6CNC6)CC5)c(C)c4)nccn23)cc1F [Example 65, N-(azetidin-3-ylmethyl)-1-(4-((3-(3-fluoro-4-methoxyphenyl)imidazo[1,2-a]pyrazin-8-yl)amino)-2-methylbenzoyl)piperidine-4-carboxamide]",250
2,Cc1cc(Nc2nccn3c(-c4ccc(OC(F)F)cc4)cnc23)ccc1C(=O)N1CCN(C2=NCCN2)CC1 [Example 67],120
3,Cc1cc(Nc2nccn3c(-c4ccc(OC(F)F)cc4)cnc23)ccc1C(=O)N1CCC(C(=O)NCC2CNC2)CC1 [Example 68],190
4,"Cc1cc(Nc2nccn3c(-c4ccc(OCC#N)c(F)c4F)cnc23)ccc1C(=O)N1CCC(CNC(=O)CO)CC1 [Example 91, N-[[1-[4-[[3-[4-(cyanomethoxy)-2,3-difluoro-phenyl]imidazo[1,2-a]pyrazin-8-yl]amino]-2-methyl-benzoyl]-4-piperidyl]methyl]-2-hydroxy-acetamide]",500
5,"Cc1cc(Nc2nccn3c(-c4ccc(OCC#N)c(F)c4F)cnc23)ccc1C(=O)N1CCC(C(=O)N2CCNC(CO)C2)CC1 (stereo not shown) [Example 95, 2-[2,3-difluoro-4-[8-[4-[4-[3-(hydroxymethyl)piperazine-1-carbonyl]piperidine-1-carbonyl]-3-methyl-anilino]imidazo[1,2-a]pyrazin-3-yl]phenoxy]acetonitrile;2,2,2-trifluoroacetic acid]",89
6,"N#CCOc1ccc(-c2cnc3c(Nc4ccc(C(=O)N5CCC(C(=O)OCC6CNCCN6)CC5)c(Cl)c4)nccn23)c(Cl)c1F (stereo not shown) [Example 96, piperazin-2-ylmethyl 1-[2-chloro-4-[[3-[2-chloro-4-(cyanomethoxy)-3-fluoro-phenyl]imidazo[1,2-a]pyrazin-8-yl]amino]benzoyl]piperidine-4-carboxylate trifluoroacetate]",290
7,"Cc1cc(Nc2nccn3c(-c4ccc(OCC#N)c(F)c4Cl)cnc23)ccc1C(=O)N1CCC(C(=O)N2CCNC(CO)C2)CC1 (stereo not shown) [Example 97, 2-[3-chloro-2-fluoro-4-[8-[4-[4-[3-(hydroxymethyl)piperazine-1-carbonyl]piperidine-1-carbonyl]-3-methyl-anilino]imidazo[1,2-a]pyrazin-3-yl]phenoxy]acetonitrile trifluoroacetate]",96
8,"N#CCOc1ccc(-c2cnc3c(Nc4ccc(C(=O)N5CCC(C(=O)OCC6CNCCN6)CC5)c(Cl)c4)nccn23)c(F)c1F (stereo not shown) [Example 98, piperazin-2-ylmethyl 1-[2-chloro-4-[[3-[4-(cyanomethoxy)-2,3-difluoro-phenyl]imidazo[1,2-a]pyrazin-8-yl]amino]benzoyl]piperidine-4-carboxylate trifluoroacetate]",85
9,"CNCC(=O)NCC1CCN(C(=O)c2ccc(Nc3nccn4c(-c5ccc(OCC#N)c(F)c5F)cnc34)cc2C)CC1 [Example 102, N-[[1-[4-[[3-[4-(cyanomethoxy)-2,3-difluoro-phenyl]imidazo[1,2-a]pyrazin-8-yl]amino]-2-methyl-benzoyl]-4-piperidyl]methyl]-2-(methylamino)acetamide]",140

# Same assay, conditions: Acinetobacter baumannii, ATCC17978, 16 h, read-out: ATCC17978 IC90, 90% growth inhibitory concentration, Acinetobacter baumannii ATCC17978, Iso-Sensitest broth, OD 600 nm over 16 h
row,Compound,IC90 [nM]
1,"COc1ccc(-c2cnc3c(Nc4ccc(C(=O)N5CCC(C(=O)N[C@@H]6CCNC6)CC5)c(C)c4)nccn23)cc1F [Example 59, (R)-1-(4-((3-(3-fluoro-4-methoxyphenyl)imidazo[1,2-a]pyrazin-8-yl)amino)-2-methylbenzoyl)-N-(pyrrolidin-3-yl)piperidine-4-carboxamide 2,2,2-trifluoroacetate]",230
2,"COc1ccc(-c2cnc3c(Nc4ccc(C(=O)N5CCC(C(=O)NCC6CNC6)CC5)c(C)c4)nccn23)c(F)c1F [Example 75, hydrochloride]",160

# Same assay, conditions: read-out: ATCC17978 IC90; 90% growth inhibitory concentration, Acinetobacter baumannii ATCC17978, Iso-Sensitest broth, OD 600 nm over 16 h; 2,2,2-trifluoroacetate
row,Compound,IC90 [nM]
1,"COc1ccc(-c2cnc3c(Nc4ccc(C(=O)N5CCC(C(=O)NCC6CNC6)CC5)c(C)c4)nccn23)cc1F [Example 60, N-(azetidin-3-ylmethyl)-1-(4-((3-(3-fluoro-4-methoxyphenyl)imidazo[1,2-a]pyrazin-8-yl)amino)-2-methylbenzoyl)piperidine-4-carboxamide 2,2,2-trifluoroacetate]",210
